A word on the IC50: it is the concentration that inhibits the measured activity by half.

T1 sequence (P48736 whole entry, species assumed): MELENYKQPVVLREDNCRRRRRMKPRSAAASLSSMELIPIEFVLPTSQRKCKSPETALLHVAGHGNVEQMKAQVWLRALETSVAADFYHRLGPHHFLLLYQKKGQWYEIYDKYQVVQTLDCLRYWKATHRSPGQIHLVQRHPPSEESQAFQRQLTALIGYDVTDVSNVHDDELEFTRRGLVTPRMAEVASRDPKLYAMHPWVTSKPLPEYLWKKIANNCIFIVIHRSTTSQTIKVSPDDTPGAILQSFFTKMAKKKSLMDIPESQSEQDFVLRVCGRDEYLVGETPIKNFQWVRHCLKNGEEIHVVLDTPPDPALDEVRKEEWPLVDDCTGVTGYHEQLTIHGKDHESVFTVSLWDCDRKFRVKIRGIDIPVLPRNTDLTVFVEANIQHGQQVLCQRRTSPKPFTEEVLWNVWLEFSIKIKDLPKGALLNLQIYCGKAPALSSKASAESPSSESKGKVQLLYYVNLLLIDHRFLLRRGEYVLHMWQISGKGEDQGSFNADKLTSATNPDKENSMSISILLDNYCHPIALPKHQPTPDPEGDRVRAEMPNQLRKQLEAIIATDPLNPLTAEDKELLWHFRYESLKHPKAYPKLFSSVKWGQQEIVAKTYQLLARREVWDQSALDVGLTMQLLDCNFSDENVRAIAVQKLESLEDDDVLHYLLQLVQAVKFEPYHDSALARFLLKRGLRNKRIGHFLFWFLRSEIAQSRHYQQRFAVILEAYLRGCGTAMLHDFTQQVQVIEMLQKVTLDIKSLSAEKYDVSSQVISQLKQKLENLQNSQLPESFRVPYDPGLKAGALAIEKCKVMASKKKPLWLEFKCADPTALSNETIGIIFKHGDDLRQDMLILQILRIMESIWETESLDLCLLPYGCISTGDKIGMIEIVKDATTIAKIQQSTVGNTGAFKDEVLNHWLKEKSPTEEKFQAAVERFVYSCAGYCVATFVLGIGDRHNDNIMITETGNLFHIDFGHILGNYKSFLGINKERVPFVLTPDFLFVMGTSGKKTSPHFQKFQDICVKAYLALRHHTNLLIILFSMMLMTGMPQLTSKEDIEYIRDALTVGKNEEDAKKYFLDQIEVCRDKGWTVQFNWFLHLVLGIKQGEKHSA
T1 sequence (Q8WYR1 whole entry partner, species assumed): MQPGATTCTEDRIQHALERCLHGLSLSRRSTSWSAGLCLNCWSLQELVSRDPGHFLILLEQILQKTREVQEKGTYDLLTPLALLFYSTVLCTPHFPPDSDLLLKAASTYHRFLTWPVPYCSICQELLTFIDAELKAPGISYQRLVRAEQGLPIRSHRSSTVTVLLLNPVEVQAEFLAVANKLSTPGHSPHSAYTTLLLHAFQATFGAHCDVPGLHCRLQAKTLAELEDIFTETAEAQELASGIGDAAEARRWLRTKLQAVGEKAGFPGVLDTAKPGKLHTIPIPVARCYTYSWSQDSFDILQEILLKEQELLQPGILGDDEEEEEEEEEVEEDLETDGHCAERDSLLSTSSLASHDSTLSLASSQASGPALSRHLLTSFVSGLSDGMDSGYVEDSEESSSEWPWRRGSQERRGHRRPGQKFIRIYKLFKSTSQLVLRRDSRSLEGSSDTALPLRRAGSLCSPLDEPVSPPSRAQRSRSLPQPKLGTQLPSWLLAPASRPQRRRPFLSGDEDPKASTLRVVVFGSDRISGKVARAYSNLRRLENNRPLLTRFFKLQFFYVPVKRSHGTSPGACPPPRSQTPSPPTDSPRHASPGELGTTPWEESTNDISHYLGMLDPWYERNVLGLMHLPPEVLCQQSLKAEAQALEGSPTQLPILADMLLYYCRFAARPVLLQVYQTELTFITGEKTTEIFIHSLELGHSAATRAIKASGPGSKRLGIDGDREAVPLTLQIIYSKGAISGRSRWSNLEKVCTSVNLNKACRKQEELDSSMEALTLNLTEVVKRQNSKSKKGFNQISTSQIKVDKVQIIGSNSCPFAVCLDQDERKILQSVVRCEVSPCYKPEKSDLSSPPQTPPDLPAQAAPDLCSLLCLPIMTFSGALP

This experiment has as its target T1, PI3Kγ (p101/p110γ protein) (Homo sapiens, UniProt P48736).
T1 construct: HA; made in house; host or cells: Spodoptera frugiperda (Sf9) cells, baculovirus co-infection
The experiment in a line: PI3Kγ In Vitro Kinase Assay. Format: biochemical. The note with it: purified recombinant p101/p110γ with G protein β1/γ2 subunits; 20 μM ATP, 25 μM PIP2; 20 minutes at room temperature. The essentials: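 Reactions ran 20 min at room temperature, pairing lipid micelles (25 μM PIP2, 300 μM PE, 0.02% Na-cholate, 10 mM MgCl2) with 20 μM ATP including [γ-32P]ATP. The enzyme was recombinant p101/p110γ (2.7 nM) with G protein β1/γ2 (57.7 nM). [32P]PIP3 product was stopped with H3PO4, filtered and scintillation counted.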
Turning to `Cc1cc(CN2C(=O)COc3ccc(C=C4SC(=S)NC4=O)cc32)c(C)o1` [Example 317, 4-(2,5-Dimethyl-furan-3-ylmethyl)-6-(4-oxo-2-thioxo-thiazolidin-5-ylidenemethyl)-4H-benzo[1,4]oxazin-3-one], the IC50 came to 21 nM.

As for `O=C1NC(=S)SC1=Cc1ccc2c(c1)N(Cc1ccc(CN3CCC4(CCCCC4)CC3)cc1)C(=O)CO2` [Example 238, 4-[4-(3-Aza-spiro[5.5]undec-3-ylmethyl)-benzyl]-6-(4-oxo-2-thioxo-thiazolidin-5-ylidenemethyl)-4H-benzo[1,4]oxazin-3-one], the IC50 amounted to 36 nM.

Turning to `CC(C)(C)OC(=O)N1CCN(C(=O)CN2C(=O)COc3ccc(C=C4SC(=S)NC4=O)cc32)CC1` [Example 214, 4-{2-[3-Oxo-6-(4-oxo-2-thioxo-thiazolidin-5-ylidenemethyl)-2,3-dihydro-1,4-benzoxazin-4-yl]-acetyl}-piperazine-1-carboxylic acid tert-butyl ester], the IC50 came to 3180 nM.

With `O=C1NC(=S)SC1=Cc1ccc2c(c1)N(Cc1cccc(OC(F)F)c1)C(=O)CO2` [Example 164, 4-(3-Difluoromethoxy-benzyl)-6-(4-oxo-2-thioxo-thiazolidin-5-ylidenemethyl)-4H-1,4-benzoxazin-3-one], the IC50 was found to be 13 nM.

Take `O=C1NC(=S)SC1=Cc1cc(F)c2c(c1)N(Cc1ccc(F)c(C(F)(F)F)c1)C(=O)CO2` [Example 292, 8-Fluoro-4-(4-fluoro-3-trifluoromethyl-benzyl)-6-(4-oxo-2-thioxo-thiazolidin-5-ylidenemethyl)-4-H-benzo[1,4]oxazin-3-one]: the IC50 came out at 11 nM.

With `CS(=O)(=O)c1ccc(CN2C(=O)COc3c(F)cc(/C=C4\SC(=S)NC4=O)cc32)cc1` [Example 289, 8-Fluoro-4-(4-methanesulfonyl-benzyl)-6-[4-oxo-2-thioxo-thiazolidin-(5Z)-ylidenemethyl]-4H-benzo[1,4]oxazin-3-one; Compound with Ethane-1,2-diamine], the IC50 was 10 nM.

As for `O=C1NC(=S)SC1=Cc1cc(Cl)c2c(c1)N(Cc1ccc(CN3CCOCC3)cc1)C(=O)CO2` [Example 80, 8-Chloro-4-(4-morpholin-4-ylmethyl-benzyl)-6-(4-oxo-2-thioxo-thiazolidin-5-ylidenemethyl)-4H-1,4-benzoxazin-3-one], the IC50 stood at 17 nM.

As for `COc1cc(CCCN2C(=O)COc3ccc(C=C4SC(=S)NC4=O)cc32)cc(OC)c1OC` [Example 124, 6-(4-Oxo-2-thioxo-thiazolidin-5-ylidenemethyl)-4-[3-(3,4,5-trimethoxy-phenyl)-propyl]-4H-benzo[1,4]oxazin-3-one], the IC50 was 15 nM.

Regarding `O=C1NC(=S)SC1=Cc1ccc2c(c1)N(Cc1ccc(C=Cc3ccccc3)cc1)C(=O)CO2` [Example 162, 6-(4-Oxo-2-thioxo-thiazolidin-5-ylidenemethyl)-4-(4-styryl-benzyl)-4H-1,4-benzoxazin-3-one], the IC50 worked out at 53 nM.

On to `Cc1cc(C=C2SC(=S)NC2=O)cc2c1OCC(=O)N2` [Example 154, 8-Methyl-6-(4-oxo-2-thioxo-thiazolidin-5-ylidenemethlyl)-4H-benzo[1,4]oxazin-3-one], for which the IC50 amounted to 160 nM.

Turning to `CC(=O)OCc1cc(CN2C(=O)COc3c(F)cc(/C=C4\SC(=S)NC4=O)cc32)cc(C(C)(C)C)c1` [Example 285, Acetic acid 3-tert-butyl-5-{8-fluoro-3-oxo-6-[4-oxo-2-thioxo-thiazolidin-(5Z)-ylidenemethyl]-2,3-dihydro-benzo[1,4]oxazin-4-ylmethyl}-benzyl ester], the IC50 was 21 nM.

Turning to `COc1ccc(CCN2C(=O)COc3ccc(C=C4SC(=S)NC4=O)cc32)cc1` [Example 136, 4-[2-(4-Methoxy-phenyl)-ethyl]-6-(4-oxo-2-thioxo-thiazolidin-5-ylidenemethyl)-4H-1,4-benzoxazin-3-one], the IC50 is 7 nM.

Turning to `NC(=O)c1ccc(CN2C(=O)COc3ccc(C=C4SC(=S)NC4=O)cc32)cc1` [Example 176, 4-[3-Oxo-6-(4-oxo-2-thioxo-thiazolidin-5-ylidenemethyl)-2,3-dihydro-1,4-benzoxazin-4-ylmethyl]-benzamide], the IC50 was 59 nM.

`Cn1nc(C(C)(C)C)cc1CN1C(=O)COc2ccc(C=C3SC(=S)NC3=O)cc21` [Example 128, 4-(5-tert-Butyl-2-methyl-2H-pyrazol-3-ylmethyl)-6-(4-oxo-2-thioxo-thiazolidin-5-ylidenemethyl)-4H-benzo[1,4]oxazin-3-one]: the IC50 stood at 180 nM.

Regarding `CS(=O)(=O)c1cccc(CN2C(=O)COc3ccc(/C=C4\SC(=O)NC4=O)cc32)c1` [Example 265, 5-[1-[4-(3-Methanesulfonyl-benzyl)-3-oxo-3,4-dihydro-2H-benzo[1,4]oxazin-6-yl]-meth-(Z)-ylidene]-thiazolidine-2,4-dione], the IC50 came to 18 nM.

With `O=C1NC(=S)SC1=Cc1ccc2c(c1)N(Cc1cc(F)c(O)c(F)c1)C(=O)CO2` [Example 295, 4-(3,5-Difluoro-4-hydroxy-benzyl)-6-(4-oxo-2-thioxo-thiazolidin-5-ylidenemethyl)-4H-benzo[1,4]oxazin-3-one], the IC50 was 4 nM.

For `CS(=O)(=O)c1ccc(Cn2c(=O)oc3ccc(C=C4SC(=S)NC4=O)cc32)cc1` [Example 291, 3-(4-Methanesulfonyl-benzyl)-5-(4-oxo-2-thioxo-thiazolidin-5-ylidenemethyl)-3H-benzoxazol-2-one; Compound with Ethane-1,2-diamine], the IC50 came out at 433 nM.

Regarding `O=C1NC(=S)SC1=Cc1ccc2c(c1)N(CCCc1ccccc1)C(=O)CO2` [Example 34, 6-(4-Oxo-2-thioxo-thiazolidin-5-ylidenemethyl)-4-(3-phenyl-propyl)-4H-1,4-benzoxazin-3-one], the IC50 was 3 nM.

`O=C1NC(=S)SC1=Cc1cc(F)c2c(c1)N(Cc1ccc(F)cc1)C(=O)CO2` [Example 301, 8-Fluoro-4-(4-fluoro-benzyl)-6-(4-oxo-2-thioxo-thiazolidin-5-ylidenemethyl)-4H-benzo[1,4]oxazin-3-one]: the half-inhibitory concentration (IC50) worked out at 1 nM.

With `CC(C)Sc1cccc(CN2C(=O)COc3ccc(C=C4SC(=S)NC4=O)cc32)c1` [Example 254, 4-(3-Isopropylsulfanyl-benzyl)-6-(4-oxo-2-thioxo-thiazolidin-5-ylidenemethyl)-4H-1,4-benzoxazin-3-one], the IC50 turned out to be 10 nM.

Regarding `COC(C)(C)c1cc(CN2C(=O)COc3ccc(/C=C4\SC(=S)NC4=O)cc32)cc(C(C)(C)C)c1` [Example 283, 4-[3-tert-Butyl-5-(1-methoxy-1-methyl-ethyl)-benzyl]-6-[4-oxo-2-thioxo-thiazolidin-(5Z)-ylidenemethyl]-4H-benzo[1,4]oxazin-3-one], the IC50 was 11 nM.

In the case of `Cc1cc(C=C2SC(=S)NC2=O)c(C)c2c1OCC(=O)N2` [Example 16, 5,8-Dimethyl-6-(4-oxo-2-thioxo-thiazolidin-5-ylidenemethyl)-4H-benzo[1,4]oxazin-3-one], the IC50 was 328 nM.

On to `O=C1NC(=O)C(=Cc2ccc3c(c2)N(Cc2ccc(CN4CCC5(CCCCC5)CC4)cc2)C(=O)CO3)S1` [Example 239, 5-{4-[4-(3-Aza-spiro[5.5]undec-3-ylmethyl)-benzyl]-3-oxo-3,4-dihydro-2H-benzo[1,4]oxazin-6-ylmethylene}-thiazolidine-2,4-dione], for which the IC50 stood at 39 nM.

Consider `O=C1NC(=S)SC1=Cc1ccc2c(c1)N(Cc1ccc(F)c(F)c1)C(=O)CO2` [Example 312, 4-(3,4-Difluoro-benzyl)-6-(4-oxo-2-thioxo-thiazolidin-5-ylidenemethyl)-4H-1,4-benzoxazin-3-one], for which the IC50 came out at 3 nM.

In the case of `CCN(CC)Cc1ccc(CN2C(=O)COc3c(F)cc(C=C4SC(=S)NC4=O)cc32)cc1` [Example 72, 4-(4-Diethylaminomethyl-benzyl)-8-fluoro-6-(4-oxo-2-thioxo-thiazolidin-5-ylidenemethyl)-4H-1,4-benzoxazin-3-one], the IC50 worked out at 14 nM.

Regarding `O=C1NC(=S)SC1=Cc1ccc2c(c1)N(Cc1cc(-c3ccccc3)cc(-c3ccccc3)c1)C(=O)CO2` [Example 43, 6-(4-Oxo-2-thioxo-thiazolidin-5-ylidenemethyl)-4-1,1′,3′,1″-terphenyl-5′-ylmethyl-4H-1,4-benzoxazin-3-one], the IC50 stood at 1440 nM.

As for `CC(C)(O)c1cc(CN2C(=O)COc3c(F)cc(C=C4SC(=S)NC4=O)cc32)ccc1F` [Example 302, 8-Fluoro-4-[4-fluoro-3-(1-hydroxy-1-methyl-ethyl)-benzyl]-6-(4-oxo-2-thioxo-thiazolidin-5-ylidenemethyl)-4H-benzo[1,4]oxazin-3-one; Compound with Ethane-1,2-diamine], the half-maximal inhibitory concentration (IC50) came to 12 nM.

Regarding “8-Fluoro-4-(3-morpholin-4-yl-propyl)-6-(4-oxo-2-thioxo-thiazolidin-5-ylidenemethyl)-4H-benzo[1,4]oxazin-3-one [Example 242]”, the concentration for half-maximal inhibition (IC50) was found to be 55 nM.

On to `Cc1cc(C=C2SC(=S)NC2=O)cc2c1OCC(=O)N2Cc1cc(C(C)(C)C)nc(C(C)(C)C)c1` [Example 221, 4-(2,6-Di-tert-butyl-pyridin-4-ylmethyl)-8-methyl-6-(4-oxo-2-thioxo-thiazolidin-5-ylidenemethyl)-4H-1,4-benzoxazin-3-one], for which the IC50 was 895 nM.

Turning to `COC(=O)c1cc(CN2C(=O)COc3ccc(C=C4SC(=S)NC4=O)cc32)cc(C(C)(C)C)c1` [Example 57, 3-tert-Butyl-5-[3-oxo-6-(4-oxo-2-thioxo-thiazolidin-5-ylidenemethyl)-2,3-dihydro-1,4-benzoxazin-4-ylmethyl]-benzoic acid methyl ester], the IC50 turned out to be 29 nM.

As for `O=C1NC(=S)SC1=Cc1ccc2c(c1)N(Cc1ccc3ncccc3c1)C(=O)CO2` [Example 337, 6-(4-Oxo-2-thioxo-thiazolidin-5-ylidenemethyl)-4-quinolin-6-ylmethyl-4H-1,4-benzoxazin-3-one], the IC50 was 8 nM.

The values above are taken from patent publication US7205295B2, “Benzoxazin-3-ones and derivatives thereof as therapeutic agents” (Warner-Lambert Company LLC, priority 2002, dated 2007).
